Test results: the NIST ThermoML archive (doi:10.1021/je800110r)

Conditions: 313.14 K, Liquid, Vibrating tube method

CCCCCCCCCC [decane]
Conditions | mass density [kg/m3]
9156 kPa | 722.3
9171 kPa | 722.4
9194 kPa | 722.3
9210 kPa | 722.4
9227 kPa | 722.3
9245 kPa | 722.2
9261 kPa | 722.3
9284 kPa | 722.4
9300 kPa | 722.4
9323 kPa | 722.5
9338 kPa | 722.6
9358 kPa | 722.5
9374 kPa | 722.6
9392 kPa | 722.5
9410 kPa | 722.6
9431 kPa | 722.4
9447 kPa | 722.6
9463 kPa | 722.7
9479 kPa | 722.4
9503 kPa | 722.6
9522 kPa | 722.6
9538 kPa | 722.5
9554 kPa | 722.6
9574 kPa | 722.7
9587 kPa | 722.7
9607 kPa | 722.6
9627 kPa | 722.6
9646 kPa | 722.6
9674 kPa | 722.5
9694 kPa | 722.8
9717 kPa | 722.7
9733 kPa | 722.8
9747 kPa | 722.7
9770 kPa | 722.9
9785 kPa | 722.8
9807 kPa | 722.8
9828 kPa | 722.9
9851 kPa | 722.9
9869 kPa | 722.8
9892 kPa | 722.9
9913 kPa | 722.9
9930 kPa | 723
9945 kPa | 722.9
9970 kPa | 722.9
9985 kPa | 722.9
10007 kPa | 722.8
10022 kPa | 723
10046 kPa | 723
10062 kPa | 723
10088 kPa | 723
10107 kPa | 723
10128 kPa | 723.1
10147 kPa | 723.1
10166 kPa | 723
10182 kPa | 723.1
10199 kPa | 723.1
10221 kPa | 723.1
10234 kPa | 723.2
10262 kPa | 723.3
10278 kPa | 723.1
10295 kPa | 723.2
10317 kPa | 723.1
10340 kPa | 723.2
10361 kPa | 723.2
10381 kPa | 723.2
10400 kPa | 723.3
10421 kPa | 723.3
10437 kPa | 723.4
10454 kPa | 723.3
10483 kPa | 723.4
10497 kPa | 723.3
10520 kPa | 723.3
10540 kPa | 723.4
10567 kPa | 723.5
10593 kPa | 723.4
10616 kPa | 723.5
10634 kPa | 723.5
10655 kPa | 723.6
10673 kPa | 723.6
10694 kPa | 723.6
10718 kPa | 723.6
10739 kPa | 723.6
10757 kPa | 723.6
10781 kPa | 723.5
10805 kPa | 723.6
10821 kPa | 723.7
10843 kPa | 723.6
10861 kPa | 723.7
10876 kPa | 723.6
10895 kPa | 723.7
10916 kPa | 723.7
10935 kPa | 723.7
10960 kPa | 723.6
10988 kPa | 723.7
11007 kPa | 723.8
11027 kPa | 723.8
11049 kPa | 723.8
11070 kPa | 723.9
11096 kPa | 723.8
11115 kPa | 723.9
11141 kPa | 723.9
11164 kPa | 723.9
11184 kPa | 723.9
11210 kPa | 723.9
11236 kPa | 723.9
11260 kPa | 724
11286 kPa | 724
11306 kPa | 724.1
11326 kPa | 724
11344 kPa | 724.1
11361 kPa | 723.9
11385 kPa | 724.2
11406 kPa | 724
11429 kPa | 724
11459 kPa | 724
11480 kPa | 724
11497 kPa | 724.2
11518 kPa | 724.2
11549 kPa | 724.3
11570 kPa | 724.3
11592 kPa | 724.1
11609 kPa | 724.3
11631 kPa | 724.3
11661 kPa | 724.2
11689 kPa | 724.3
11711 kPa | 724.5
11743 kPa | 724.4
11765 kPa | 724.3
11794 kPa | 724.4
11820 kPa | 724.4
11852 kPa | 724.4
11886 kPa | 724.5
11915 kPa | 724.5
11945 kPa | 724.4
11976 kPa | 724.6
12006 kPa | 724.5
12029 kPa | 724.6
12060 kPa | 724.5
12090 kPa | 724.6
12118 kPa | 724.7
12149 kPa | 724.5
12173 kPa | 724.7
12197 kPa | 724.7
12233 kPa | 724.6
12257 kPa | 724.7
12287 kPa | 724.9
12324 kPa | 724.8
12341 kPa | 724.8
12365 kPa | 724.9
12382 kPa | 724.9
12406 kPa | 724.9
12434 kPa | 724.8
12459 kPa | 724.9
12483 kPa | 724.9
12501 kPa | 724.9
12523 kPa | 725
12552 kPa | 725
12574 kPa | 725
12596 kPa | 724.9
12624 kPa | 724.9
12650 kPa | 725
12672 kPa | 725.1
12695 kPa | 725.2
12721 kPa | 725.1
12751 kPa | 725.1
12774 kPa | 725.1
12807 kPa | 725.3
12834 kPa | 725.2
12857 kPa | 725.2
12882 kPa | 725.3
12901 kPa | 725.2
12923 kPa | 725.3
12948 kPa | 725.2
12973 kPa | 725.3
12992 kPa | 725.3
13015 kPa | 725.3
13037 kPa | 725.5
13059 kPa | 725.3
13081 kPa | 725.3
13107 kPa | 725.5
13127 kPa | 725.5
13151 kPa | 725.5
13171 kPa | 725.4
13187 kPa | 725.6
13210 kPa | 725.5
13230 kPa | 725.5
13253 kPa | 725.4
13276 kPa | 725.5
13309 kPa | 725.5
13333 kPa | 725.4
13357 kPa | 725.5
13384 kPa | 725.7
13405 kPa | 725.6
13434 kPa | 725.7
13451 kPa | 725.8
13475 kPa | 725.6
13499 kPa | 725.8
13520 kPa | 725.7
13538 kPa | 725.7
13562 kPa | 725.7
13583 kPa | 725.7
13607 kPa | 725.8
13636 kPa | 725.8
13654 kPa | 725.8
13682 kPa | 726
13714 kPa | 725.9
13743 kPa | 725.9
13768 kPa | 725.9
13797 kPa | 725.9
13830 kPa | 725.9
13848 kPa | 726
13878 kPa | 726
13900 kPa | 726
13932 kPa | 726
13970 kPa | 726.1
13987 kPa | 726.1
14008 kPa | 726.2
14029 kPa | 726.1
14050 kPa | 726.2
14071 kPa | 726.1
14091 kPa | 726.2
14119 kPa | 726.1
14140 kPa | 726.1
14168 kPa | 726.2
14196 kPa | 726.3
14224 kPa | 726.2
14253 kPa | 726.3
14277 kPa | 726.4
14302 kPa | 726.3
14328 kPa | 726.3
14353 kPa | 726.4
14371 kPa | 726.3
14405 kPa | 726.4
14426 kPa | 726.3
14449 kPa | 726.4
14485 kPa | 726.5
14511 kPa | 726.5
14540 kPa | 726.5
14570 kPa | 726.5
14600 kPa | 726.4
14630 kPa | 726.5
14663 kPa | 726.6
14693 kPa | 726.7
14719 kPa | 726.7
14750 kPa | 726.6
14780 kPa | 726.7
14811 kPa | 726.8
14830 kPa | 726.7
14861 kPa | 726.7
14892 kPa | 726.8
14919 kPa | 726.8
14944 kPa | 726.8
14964 kPa | 726.8
14984 kPa | 726.8
15008 kPa | 726.8
15036 kPa | 726.9
15068 kPa | 726.9
15100 kPa | 727
15125 kPa | 727
15154 kPa | 726.9
15190 kPa | 727
15219 kPa | 727
15248 kPa | 727
15273 kPa | 727.1
15314 kPa | 727.1
15343 kPa | 727.2
15372 kPa | 727.2
15397 kPa | 727
15423 kPa | 727.1
15441 kPa | 727.2
15467 kPa | 727.3
15485 kPa | 727.2
15504 kPa | 727.2
15526 kPa | 727.2
